Data as given in patent publication EP1592418B1, “USE OF ENDOCANNABINOID-LIKE COMPOUNDS FOR TREATING CNS DEGENERATIVE DISORDERS” (Research & Innovation S.p.A., priority 2003, dated 2004).

Experiments:
[1] = Solubility (physico-chemical properties); format: physicochemical; settings: for solubility: organic solvent or mixture, read-out: solubility in organic solvents
Jurkat cells = assay: Evaluation of cellular viability by MTT assay; format: cell-based, human; settings: 10 µM, incubated 18-24 hr, MTT, absorbance 570 nm
Procedure: Jurkat, an acute T-lymphoblastic leukemia cell line generated from a person, have been used. Cell culture have been cultured in RPMI-1640 culture medium containing 10% FBS.
Jurkat cells were cultured at 1x10^5 cells/ml in RPMI 1640 medium supplemented with 10% fetal bovine serum (FBS), 2mM L-glutamine and 100 U/ml penicillin + 100 ug/ml streptomycin.
To detect drug effect in vitro, MTT [3-(4,5-dimethylthiazol-2-yl)-2,5-diphenyltetrazolium bromide] assay was used as described (Carmichael J et al., 1987 Cancer Res. 47, 936-42). Briefly, cells were seeded in triplicate on 96-well culture plates at a density of 20000 cells/well. The drugs were added in order to have the final concentration of 10 µM (1 µl of a solution of 10mM in DMSO) and incubated for 18-24 hr. Then MTT (0.5 mg/ml) was added to each well, and plates were incubated for an additional 1 to 3 hr in the dark at 37 °C. After this time the MTT solution was aspirated from the wells and 0.1 ml of DMSO was added. The plates were allowed to stand for 10 min, and then the absorbance was determined in a SpectraCount (Packard) microplate reader at 570 nm. The drug effect was determined by comparing absorbances of treated and untreated cells.

[2] = system: reverse passive Arthus reaction, mouse ear pinna; assay: Reverse passive Arthus reaction (RPA) in the mouse ear pinna: oedema and Evans blue extravasation; format: in vivo; settings: mouse ear; for Extravasation / Riduction % (extravasation): 10 mg/Kg i.p.; for Extravasation: Evans blue density at 620 nm in ear homogenate supernatant, Vehicle 0,90±0,06, Naïve 0,04±0,01; for Oedema (mg): 10 mg/Kg intraperitoneally 1 hour before induction, weight increase of 8 mm punch vs contralateral ear, three hours after antigen, Vehicle 49,8 ± 1,2, Naive 23,7 ± 1,2; for Riduction % (extravasation): reduction of extravasation versus Vehicle (0)
Description: The Arthus model (RPA) is a model of immune-complex mediated tissue damage that involves the passive subcutaneous introduction of an antibody and the systemic administration of the corresponding antigen. This inflammatory model has been used to test the in vivo activity of the synthesised molecules.
The reverse passive Arthus reaction is induced, in the mouse ear pinna, by the subcutaneous injection of an excess of IgG anti human albumin followed by i.v. adiministration of the corresponding Ag (i.e. human albumin) together with Evans blue, 2 mg for each mouse, for the evaluation of extravasation.
(§1) The tested molecules were solubilised in DMSO, cremophor and PBS in a ratio of 1:1:18 and administered usually by intraperitonelly at the dosage of 10 mg/Kg 1 hour before the induction of anafilactic reaction. The animals were sacrificed 3 hours after the molecule administration.
The oedema and the extravasations are evaluated tree hours after the i.v. administration of the antigen. The oedema is evaluated as the increase of weight of lesioned ear area dissected by a 8 mm biopsy punch as compared to the contralateral unlesioned auricular tissues. The extravasation is measured determining the Evans blue density at 620 nm in the supernatants deriving from ear homogenates following centrifugation at 10000 x g for 20 min.

[3] = Rectal temperature (central cannabinoid effect, hypothermia); format: in vivo, mouse; settings: for ΔT (°C) rectal temperature: treated animals, Vehicle 0,1 ± 0,2
Procedure: as §1
TABLE 4. Rectal temperature in animals that have been treated with cannabinoids, endocannabinoids or molecules that are object of the present invention. Note a profound hypothermia induced by synthetic cannabinoid such as Win 55,212 or the endocannabinoid Anandamide while no alteration was induced by molecules that are object of the present invention.

Compound	solubility ([1]; in DMSO and in chloroform)	solubility in water [1]	Growth inhibition (% of control) (Jurkat cells)	Extravasation [2]	Oedema (mg) [2]	Riduction % (extravasation) [2]	ΔT (°C) rectal temperature [3]	solubility in organic solvents ([1]; in DMSO and in chloroform)	rectal temperature (in words) ([3]; mouse, in vivo)
CCCCCCCCCCCCCC(=O)NC(C)C [Example 1, N-isopropyl-myristoyl amide]	> 10000 µg/mL	scarcely soluble	55.0 % of control	0,57±0,03	39,9 ± 2,1 mg	36.7%	0,2 ± 0,3 °C		
CCCCCCCCCCCCCCCC(=O)NC(C)C [Example 2, N-isopropyl-palmitoyl amide]	> 10000 µg/mL	scarcely soluble	55.6 % of control	0,37±0,07	31,8 ± 1,8 mg	58.9%	0,1 ± 0,1 °C		
CCCCCCCCCCCCCCCCCC(=O)NC(C)C [Example 4, N-Isopropyl-stearoyl amide]	> 10000 µg/mL	scarcely soluble	45.3 % of control	0,20±0,03	26,5 ± 0,9 mg	77.8%	0,2 ± 0,1 °C		
CCCCCCCCCCCCCCCCNC(C)=O [Example 12, N-hexadecyl-acetyl-amide]	> 10000 µg/mL	scarcely soluble	64.8 % of control	0,72±0,03	41,5 ± 1,9 mg	20.0%	0,2 ± 0,2 °C		
CCCCCCCCCCCCCCCC(=O)NC1CCCCC1 [Example 15, N-cyclohexyl-palmitoyl amide]		scarcely soluble	63.2 % of control	0,58±0,16	47,5 ± 4,2 mg		0,1 ± 0,1 °C	>10 mg/ml in DMSO and in chloroform	
CCCCCCCCCCCCCCCC(=O)NCC(C)C [Example 25, N-isobutyl-palmitoyl amide]	> 10000 µg/mL	scarcely soluble		0,72±0,07	42,4 ± 2.4 mg	20.0%	0,3 ± 0,1 °C		
CCCCCCCCCCCCCCCC(=O)NC1CCC1 [Example 27, N-cyclobutyl-palmitoyl amide]	> 10000 µg/mL	scarcely soluble	29.2 % of control	0,39±0,11	38,5 ± 0.9 mg	56.7%	0,1 ± 0,1 °C		
CCCCCCCCCCCCCCCCCC(=O)NCCCCC [Example 34, N- pentyl-stearoyl amide]	> 10000 µg/mL	scarcely soluble	34.2 % of control	0,62±0,08	42,5 ± 3.5 mg	31.2%	0,1 ± 0,1 °C		
CCCCCCCCCCCCCCCC(=O)NCCC(C)C [Example 35, N-isopentyl-palmitoyl amide]	> 10000 µg/mL	scarcely soluble	29.2 % of control	0,58±0,09	38,3 ± 1.8 mg	35.6%	0,3 ± 0,2 °C		
CCCCCCCCCCCCCCCCCC(=O)NCCC(C)C [Example 36, N-isopentyl-stearoyl amide]	> 10000 µg/mL	scarcely soluble	30.2 % of control	0,52±0,05	33,7 ± 3.2 mg	42.7%	0,1 ± 0,1 °C		
CCCCCCCCCCCCCCCCCC(=O)NC1CCCC1 [Example 38, N-cyclopentyl-stearoyl amide]	> 10000 µg/mL	scarcely soluble	31.8 % of control	0,51±0,14	32,3 ± 3.3 mg	43.4%	0,2 ± 0,2 °C		
CCCCCCCCCCCCCCCC(N)=O [Palmitoylamide]			33.9 % of control	0,35±0,05	33,2 ± 0.7 mg	61.2%	0,2 ± 0,1 °C		
CCCCCCCCCCCCCCCCCC(N)=O [Starylamide, stearylamide]			35.2 % of control	0,31±0,08	30,8 ± 0.5 mg	65.6%	0,3 ± 0,2 °C		
Cc1c(C(=O)c2cccc3ccccc23)c2cccc3c2n1[C@H](CN1CCOCC1)CO3 [WIN 55.212, reference compound]			79.2 % of control	0,51 ±0,02	33,7 ± 4,6 mg	43.5%	-5,1 ± 1,3 °C		drastic reduction
